# According to patent US6949542B2, “Dihydro-benzo[b][1,4]diazepin-2-one derivatives” (Hoffman-La Roche Inc., priority 2002, dated 2005):
row,melting point [°C],Compound
1,207,"Cc1cc(-c2cccc(C3=Nc4cc(C(F)(F)F)c(Cl)cc4NC(=O)C3)c2)cc(C)n1 [Example 128, 8-Chloro-4-[3-(2,6-dimethyl-pyridin-4-yl)-phenyl]-7-trifluoromethyl-1,3-dihydro benzo[b][1,4]diazepin-2-one]"
2,197 to 198,"O=C1CC(c2cccc(-c3ccccn3)c2)=Nc2cc(F)c(Cl)cc2N1 [Example 52, 8-Chloro-7-fluoro-4-(3-pyridin-2-yl-phenyl)-1,3-dihydro-benzo[b][1,4]diazepin-2-one]"
3,189,"Cc1cc(-c2cccc(C3=Nc4cc(N(C)CC(C)C)c(C(F)(F)F)cc4NC(=O)C3)c2)ccn1 [Example 362, 7-(Isobutyl-methyl-amino)-4-[3-(2-methyl-pyridin-4-yl)-phenyl]-8-trifluoromethyl-1,3-dihydro-benzo[b][1,4]diazepin-2-one]"
4,223,"O=C1CC(c2cccc(-c3ccc(C4CC4)nc3)c2)=Nc2cc(OCC3CC3)c(C(F)(F)F)cc2N1 [Example 196, 7-Cyclopropylmethoxy-4-[3-(6-cyclopropyl-pyridin-3-yl)-phenyl]-8-trifluoromethyl-1,3-dihydro-benzo[b][1,4]diazepin-2-one]"
5,205 to 207,"Cc1ccncc1-c1cccc(C2=Nc3cc(C)c(C(F)(F)F)cc3NC(=O)C2)c1 [Example 233, 7-Methyl-4-[3-(4-methyl-pyridin-3-yl)-phenyl]-8-trifluoromethyl-1,3-dihydro-benzo[b][1,4]diazepin-2-one]"
6,233,"Cc1cc(-c2cccc(C3=Nc4cc(N5CCCC5)c(C(F)(F)F)cc4NC(=O)C3)c2)cc(C)n1 [Example 411, 4-[3-(2,6-Dimethyl-pyridin-4-yl)-phenyl]-7-pyrrolidin-1-yl-8-trifluoromethyl-1,3-dihydro-benzo[b][1,4]diazepin-2-one]"
7,233,"Cc1ccc(-c2cccc(C3=Nc4ccc(C(F)(F)F)cc4NC(=O)C3)c2)nn1 [Example 14, 4-[3-(6-Methyl-pyridazin-3-yl)-phenyl]-8-trifluoromethyl-1,3-dihydro-benzo[b][1,4]diazepin-2-one]"
8,251,"CCOc1cc2c(cc1C(F)(F)F)NC(=O)CC(c1cccc(-c3ccnc(C(F)(F)F)c3)c1)=N2 [Example 269, 7-Ethoxy-8-trifluoromethyl-4-[3-(2-trifluoromethyl-pyridin-4-yl)-phenyl]-1,3-dihydro-benzo[b][1,4]diazepin-2-one]"
9,249,"CCOc1cc2c(cc1C(F)(F)F)NC(=O)CC(c1ccnc(-c3cccnc3)c1)=N2 [Example 393, 4-[2,3′]Bipyridinyl-4-yl-7-ethoxy-8-trifluoromethyl-1,3-dihydro-benzo[b][1,4]diazepin-2-one]"
10,230,"Cc1ccc(-c2cccc(C3=Nc4ccc(Cl)cc4NC(=O)C3)c2)cn1 [Example 31, 8-Chloro-4-[3-(6-methyl-pyridin-3-yl)-phenyl]-1,3-dihydro-benzo[b][1,4]diazepin-2-one]"
11,224,"O=C1CC(c2cccc(-c3ccnc(CO)c3)c2)=Nc2cc(Cl)c(Cl)cc2N1 [Example 285, 7,8-Dichloro-4-[3-(2-hydroxymethyl-pyridin-4-yl)-phenyl]-1,3-dihydro-benzo[b][1,4]diazepin-2-one]"
12,218 to 219,"Cc1cc2c(cc1C(F)(F)F)NC(=O)CC(c1cccc(-c3ccnc(C4CCCC4)c3)c1)=N2 [Example 351, 4-[3-(2-Cyclopentyl-pyridin-4-yl)-phenyl]-7-methyl-8-trifluoromethyl-1,3-dihydro-benzo[b][1,4]diazepin-2-one]"
13,197,"O=C1CC(c2ccnc(-c3cccnc3)c2)=Nc2cc(OCC(F)(F)F)c(C(F)(F)F)cc2N1 [Example 394, 4-[2,3′]Bipyridinyl-4-yl-7-(2,2,2-trifluoro-ethoxy)-8-trifluoromethyl-1,3-dihydro-benzo[b][1,4]diazepin-2-one]"
14,205,"CCOc1cc2c(cc1C(F)(F)F)NC(=O)CC(c1cccc(-c3cnc(CC)cc3C)c1)=N2 [Example 255, 7-Ethoxy-4-[3-(6-ethyl-4-methyl-pyridin-3-yl)-phenyl]-8-trifluoromethyl-1,3-dihydro-benzo[b][1,4]diazepin-2-one]"
15,206,"Cc1cc(C2CC2)ncc1-c1cccc(C2=Nc3cc(OCC(F)(F)F)c(C(F)(F)F)cc3NC(=O)C2)c1 [Example 248, 4-[3-(6-Cyclopropyl-4-methyl-pyridin-3-yl)-phenyl]-7-(2,2,2-trifluoro-ethoxy)-8-trifluoromethyl-1,3-dihydro-benzo[b][1,4]diazepin-2-one]"
16,173,"CCOc1ccc2c(c1)N=C(c1cccc(-c3ccc(C)nc3)c1)CC(=O)N2 [Example 60, 7-Ethoxy-4-[3-(6-methyl-pyridin-3-yl)-phenyl]-1,3-dihydro-benzo[b][1,4]diazepin-2-one]"
17,219 to 224,"COc1ccc(-c2cccc(C3=Nc4cc(C)c(C(F)(F)F)cc4NC(=O)C3)c2)cn1 [Example 168, 4-[3-(6-Methoxy-pyridin-3-yl)-phenyl]-7-methyl-8-trifluoromethyl-1,3-dihydro-benzo[b][1,4]diazepin-2-one]"
18,205 to 206,"CCCOc1cc2c(cc1C(F)(F)F)NC(=O)CC(c1cccc(-c3cc(C)nc(C)c3)c1)=N2 [Example 219, 4-[3-(2,6-Dimethyl-pyridin-4-yl)-phenyl]-7-propoxy-8-trifluoromethyl-1,3-dihydro-benzo[b][1,4]diazepin-2-one]"
19,213 to 214,"CCOc1cc2c(cc1C(F)(F)F)NC(=O)CC(c1cccc(-c3cnccc3C)c1)=N2 [Example 231, 7-Ethoxy-4-[3-(4-methyl-pyridin-3-yl)-phenyl]-8-trifluoromethyl-1,3-dihydro-benzo[b][1,4]diazepin-2-one]"
20,212,"Cc1nccc(-c2cccc(C3=Nc4cc(Cl)c(C(F)(F)F)cc4NC(=O)C3)c2)c1C [Example 143, 7-Chloro-4-[3-(2,3-dimethyl-pyridin-4-yl)-phenyl]-8-trifluoromethyl-1,3-dihydro benzo[b][1,4]diazepin-2-one]"
21,209,"O=C1CC(c2cccc(-c3ccnc(CO)c3)c2)=Nc2cc(C(F)(F)F)c(C(F)(F)F)cc2N1 [Example 417, 4-[3-(2-Hydroxymethyl-pyridin-4-yl)-phenyl]-7,8-bis-trifluoromethyl-1,3-dihydro-benzo[b][1,4]diazepin-2-one]"
22,238 to 240,"O=C1CC(c2cccc(-c3cccnn3)c2)=Nc2ccc(C(F)(F)F)cc2N1 [Example 205, 4-(3-Pyridazin-3-yl-phenyl)-8-trifluoromethyl-1,3-dihydro-benzo[b][1,4]diazepin-2-one]"
23,200,"CN(C)c1cc2c(cc1C(F)(F)F)NC(=O)CC(c1cccc(-c3cncnc3)c1)=N2 [Example 85, 7-Dimethylamino-4-(3-pyrimidin-5-yl-phenyl)-8-trifluoromethyl-1,3-dihydro-benzo[b][1,4]diazepin-2-one]"
24,248 to 252,"Cc1cc(-c2cccc(C3=Nc4cc(C)c(C(F)(F)F)cc4NC(=O)C3)c2)nc(N(C)C)n1 [Example 320, 4-[3-(2-Dimethylamino-6-methyl-pyrimidin-4-yl)-phenyl]-7-methyl-8-trifluoromethyl-1,3-dihydro-benzo[b][1,4]diazepin-2-one]"
